Test results as given in patent US7989474B2, “Use of Lck inhibitors for treatment of immunologic diseases” (Boehringer Ingelheim Pharma GmbH & Co. KG, priority 2002, dated 2011).

Target: T1, lck enzyme (Homo sapiens, UniProt P06239)
T1 construct: The lck enzyme comprises the entire lck molecule except the first nine amino acids which are replaced by an His-tag; His-tag (N); made in house
Assay: Non-Radioactive Kinase Assay (lck)
Type: biochemical
Settings: mean values of two independent experiments
Procedure: The lck enzyme comprises the entire lck molecule except the first nine amino acids which are replaced by an His-tag for purification purposes. The enzyme is affinity purified.
The reaction is started by the addition of 50 μl 500 μM ATP (in 10 mM MgAc2) and is performed at room temperature.
The solution is incubated for one hour at room temperature and the supernatant discarded. The well is washed twice with 300 μl PBS.

T1 sequence (P06239 10-509 limits assumed, species assumed): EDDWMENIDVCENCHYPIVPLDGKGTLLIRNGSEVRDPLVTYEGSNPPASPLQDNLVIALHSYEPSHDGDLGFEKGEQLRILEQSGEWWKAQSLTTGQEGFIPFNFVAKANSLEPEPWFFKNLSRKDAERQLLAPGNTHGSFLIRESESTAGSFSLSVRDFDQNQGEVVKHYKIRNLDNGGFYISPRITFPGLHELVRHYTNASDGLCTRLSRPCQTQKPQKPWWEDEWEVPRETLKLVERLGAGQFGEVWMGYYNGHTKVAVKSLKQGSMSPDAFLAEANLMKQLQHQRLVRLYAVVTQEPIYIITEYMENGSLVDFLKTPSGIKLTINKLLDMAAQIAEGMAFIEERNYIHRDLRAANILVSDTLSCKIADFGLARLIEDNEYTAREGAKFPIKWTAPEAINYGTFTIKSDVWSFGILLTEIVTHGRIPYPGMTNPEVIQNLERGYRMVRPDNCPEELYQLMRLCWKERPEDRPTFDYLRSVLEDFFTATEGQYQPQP

COC(=O)c1ccc2c(c1)NC(=O)/C2=C(\Nc1ccc(N(C)C(=O)CN(C)C)cc1)c1ccccc1 [(AI), (Z)-3-(1-(4-(N-(dimethylaminomethylcarbonyl)-N-methyl-amino)-phenylamino)-1-phenyl-methylene)-6-methoxycarbonyl-2-indolinone]
IC50: 36 nM
